From article PMC8311653, “Design, Synthesis, In Vitro and In Vivo Characterization of Selective NKCC1 Inhibitors for the Treatment of Core Symptoms in Down Syndrome” (Journal of Medicinal Chemistry, 2021)
In brackets after ≈: the same amount, converted by molar mass.

What was measured:
NKCC1 = molecular target: T1, NKCC1 (Homo sapiens, UniProt P55011); assay: Cl- influx assay in NKCC1-transfected HEK293 cells; assay type: cell-based; conditions: for inhibition at 10 µM: HEK293, read-out: Inhibition 10 μM Cl- influx (%); for inhibition at 100 µM: HEK293, read-out: Inhibition 100 μM Cl- influx (%); for Inhibition 10 μM Cl- influx (%) / Inhibition 100 μM Cl- influx (%): NKCC1-transfected HEK293 cells
T1 construct: host or cells: HEK293
T1 sequence (P55011 1-1212): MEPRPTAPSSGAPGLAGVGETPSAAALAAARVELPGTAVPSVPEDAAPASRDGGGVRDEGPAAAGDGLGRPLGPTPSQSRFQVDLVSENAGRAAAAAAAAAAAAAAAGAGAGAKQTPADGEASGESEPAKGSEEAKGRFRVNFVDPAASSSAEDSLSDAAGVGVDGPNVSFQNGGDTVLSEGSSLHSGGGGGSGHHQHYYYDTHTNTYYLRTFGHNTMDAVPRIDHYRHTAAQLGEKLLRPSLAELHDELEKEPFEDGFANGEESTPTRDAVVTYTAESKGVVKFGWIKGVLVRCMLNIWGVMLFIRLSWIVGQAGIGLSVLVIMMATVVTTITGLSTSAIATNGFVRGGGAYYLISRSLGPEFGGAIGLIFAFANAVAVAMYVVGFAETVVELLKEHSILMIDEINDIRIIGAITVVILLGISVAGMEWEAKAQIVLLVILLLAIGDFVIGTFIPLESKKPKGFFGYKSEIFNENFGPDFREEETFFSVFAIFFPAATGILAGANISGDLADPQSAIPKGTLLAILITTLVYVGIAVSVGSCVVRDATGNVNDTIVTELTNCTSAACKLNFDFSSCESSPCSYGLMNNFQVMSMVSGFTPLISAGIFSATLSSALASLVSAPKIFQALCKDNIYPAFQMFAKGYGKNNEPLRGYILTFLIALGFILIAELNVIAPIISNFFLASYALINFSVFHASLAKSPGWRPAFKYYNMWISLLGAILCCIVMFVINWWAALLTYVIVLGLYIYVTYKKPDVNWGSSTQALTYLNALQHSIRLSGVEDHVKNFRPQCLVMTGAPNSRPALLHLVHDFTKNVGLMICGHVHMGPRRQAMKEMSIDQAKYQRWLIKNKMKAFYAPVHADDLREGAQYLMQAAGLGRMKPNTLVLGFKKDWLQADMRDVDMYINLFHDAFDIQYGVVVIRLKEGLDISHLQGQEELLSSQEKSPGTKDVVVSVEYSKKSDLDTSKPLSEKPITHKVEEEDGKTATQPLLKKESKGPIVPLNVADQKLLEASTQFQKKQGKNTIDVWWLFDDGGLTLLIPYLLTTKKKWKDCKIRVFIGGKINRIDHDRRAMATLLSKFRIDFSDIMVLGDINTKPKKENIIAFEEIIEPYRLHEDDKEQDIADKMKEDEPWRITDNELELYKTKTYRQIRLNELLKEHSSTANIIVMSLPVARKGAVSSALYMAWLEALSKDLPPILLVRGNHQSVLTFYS
Method: HEK293 cells were cultured in Dulbecco’s modified Eagle’s medium (DMEM) supplemented with 10% fetal bovine serum, 1% L-glutamine, 100 U/mL penicillin, and 100 μg/mL streptomycin and maintained at 37 °C in a 5% CO2 humidified atmosphere. To assess NKCC1 and NKCC2 activity (Cl^– influx assay), 3 million HEK cells were plated in a 10 cm cell-culture dish and transfected with a transfection mixture comprising 5 mL of DMEM, 4 mL of Opti-MEM, 8 μg of DNA plasmid coding for NKCC1 (PRK-NKCC1 obtained from Medical Research Council and the University of Dundee), NKCC2 (OriGene plasmid #RC216145) subcloned in PRK5 plasmid, or mock control (empty vector), together with 8 μg of a plasmid coding for the Cl^–-sensitive variant of the membrane-targeted fluorescent protein YFP, mbYFPQS (Addgene plasmid #80742),[53] and 32 μL of Lipofectamin 2000. To assess KCC2 activity (Tl influx assay), cells were transfected with 8 μg of KCC2[54] subcloned in the PRK5 plasmid or mock control (empty vector) and 16 μL of Lipofectamin 2000. After 4 h, the cells were collected and plated in 96-well black-walled, clear-bottomed plates at a density of 2.5 × 10^4. After 48 h, cells were used for the Cl^– or Tl influx assays. All reagents were purchased from Life Technologies, unless otherwise specified.
Transfected cells were treated with 10 μM or 100 μM bumetanide (as positive controls), DMSO (as the negative control), or with each of our compounds in 100 μL/well of a Cl^–-free hypotonic solution (67.5 mM Na^+ gluconate, 2.5 mM K^+ gluconate, 15 mM HEPES pH 7.4, 50 mM glucose, 1 mM Na2HPO4, 1 mM NaH2PO4, 1 mM MgSO4, and 1 mM CaSO4). After 30 min of incubation, plates were loaded into a Victor 3V (PerkinElmer) multiplate reader equipped with an automatic liquid injector system, and fluorescence of Cl^–-sensitive mbYFPQS was recorded with excitation at 485 nm and emission at 535 nm. For each well, fluorescence was first recorded for 20 s of the baseline and for 60 s after delivery of a NaCl concentrated solution (74 mM final concentration in the assay well). Fluorescence of Cl^–-sensitive mbYFPQS is inversely correlated to the intracellular Cl^– concentration;[53] therefore, chloride influx into the cells determined a decrease in mbYFPQS fluorescence. To represent the fluorescent traces in time, we normalized the fluorescence value for each time point to the average of the fluorescence value of the first 20 s of the baseline (ΔF/F0). To quantify the average effects as represented by the bar plots, we expressed the decrease in fluorescence upon NaCl application as the average of the last 10 s of ΔF/F0 normalized traces. Moreover, for each experiment, to account for the contribution of Cl^– changes that were dependent on transporters/exchangers other than NKCC1 or NKCC2, we subtracted the value of the last 10 s of ΔF/F0 normalized traces obtained from mock-transfected cells (either control or treated) from the respective ΔF/F0 value obtained from the cells transfected with NKCC1 or NKCC2. We then presented in the figures all the data as a percentage of the fluorescence decrease versus the value of the control DMSO.

[1] = Aqueous kinetic solubility in PBS pH 7.4; assay type: physicochemical; conditions: phosphate buffered saline (PBS); aqueous kinetic solubility from 10 mM DMSO solution in PBS pH 7.4; target concentration 250 μM (final DMSO 2.5%)
Method: 1. Aqueous kinetic solubility.
30 µL aliquots of 10 mM DMSO stock solution of the test compound were incubated in Phosphate
Buffered Saline (PBS) at pH 7.4 at 25°C for 24h. After centrifugation the dissolved compound in the
supernatant was quantified by LC-MS/MS.
Aqueous kinetic solubility was determined by UV quantification at
215 nm. […]

[2] = In vitro metabolic stability in mouse liver microsomes; conditions: tissue homogenate, pH 7.4
Method: 1. Aqueous kinetic solubility. […]
3. In vitro mouse microsomial stability. […]
microsomes (Sekisui Xenotech, LCC), 0.1M Tris-HCl buffer (pH 7.4), and 10% DMSO. The final […]
After pre-incubation, the cofactors (NADPH, G6P, G6PDH, MgCl2 pre-dissolved in 0.1M Tris-HCl) were added to the incubation mixture and the incubation was continued at 37 °C for 1h. At each time point (0, 5, 15, 30, 60 min), 30µL of incubation mixture was diluted with 200 µL cold acetonitile spiked with 200 nM of warfarin as internal standard, followed by centrifugation at 3500 g for 30 min. The supernatant was further diluted with H2O (1:1) for analysis.
An aliquot of 200 µl of the supernatant was removed, and the concentration of the test compound was […]
quantified by LC-MS/MS. The percentage of the test compound remaining at each time point relative […]
to t=0 was calculated. The half-lives (t½) were determined by a one-phase decay equation using a […]
non-linear regression of compound concentration vs time.

SMILES | inhibition at 10 µM (NKCC1) [%] | inhibition at 100 µM (NKCC1) [%] | solubility at 24 h [1] [µM] | half-life at 5 μM [2] [min] | Inhibition 10 μM Cl- influx (%) (NKCC1) | Inhibition 100 μM Cl- influx (%) (NKCC1)
CCCCCCCCNc1ccc([N+](=O)[O-])cc1S(N)(=O)=O [Compound 7, 5-Nitro-2-(octylamino)benzenesulfonamide] | 0.3 ± 2.9 | 5.8 ± 6.8 | < 1 | < 5 |  | 
CCCCCCNc1ccc([N+](=O)[O-])cc1S(=O)(=O)N(C)C [Compound 12, 2-(Hexylamino)-N,N-dimethyl-5-nitro-benzenesulfonamide] |  | 4.9 ± 6.8 | 1 (≈ 0.329 µg/mL) | < 5 | Inactive | 
CCCCCCNc1ccc(C(=O)O)cc1S(N)(=O)=O [Compound 16, 4-(Hexylamino)-3-sulfamoyl-benzoic Acid] |  | 4.9 ± 3.7 | 238 (≈ 71.5 µg/mL) | > 60 | Inactive | 
CCCCCCCCNc1ccc(C(=O)O)cc1S(N)(=O)=O [Compound 17, 4-(Octylamino)-3-sulfamoyl-benzoic Acid] |  | 24 ± 8.5 | > 250 | 18 | Inactive | 
CCCCCCNc1ccc(C(=O)O)cc1S(=O)(=O)NC [Compound 20, 4-(Hexylamino)-3-(methylsulfamoyl)benzoic Acid] |  |  | 247 (≈ 77.7 µg/mL) | 29 | Inactive | Inactive
CCCCCCCCNc1ccc(C(=O)O)cc1S(=O)(=O)NC [Compound 21, 3-(-N-Methylsulfamoyl)-4-(octylamino)benzoic Acid] | 16.2 ± 4.8 | 20.1 ± 14.7 | 53 (≈ 18.2 µg/mL) | 12 |  | 
CCCCCCNc1ccc(C(=O)O)cc1S(=O)(=O)N(C)C [Compound 24, 3-(-N,N-Dimethylsulfamoyl)-4-(hexylamino)benzoic Acid] |  | 19.8 ± 5.2 | 243 (≈ 79.8 µg/mL) | 17 | Inactive | 
CCCCCCCCNc1ccc(C(=O)O)cc1S(=O)(=O)N(C)C [Compound 25, 3-(-N,N-Dimethylsulfamoyl)-4-(octylamino)benzoic Acid] |  | 70.6 ± 9.2 | 52 (≈ 18.5 µg/mL) | 13 | Inactive | 
CN(C)S(=O)(=O)c1cc(C(=O)O)ccc1NCCC(C)(C)C [Compound 26, 4-(-N-3,3-Dimethylbutylamino)-3-(dimethylsulfamoyl)benzoic Acid] |  |  | > 250 | > 60 | Inactive | Inactive
CN(C)S(=O)(=O)c1cc(C(=O)O)ccc1NCCCC(F)(F)F [Compound 27, 3-(-N,N-Dimethylsulfamoyl)-4-(4,4,4-trifluorobutylamino)benzoic Acid] |  | 1.9 ± 5 | 245 (≈ 86.8 µg/mL) | > 60 | Inactive | 
CN(C)S(=O)(=O)c1cc(C(=O)O)ccc1NCCCCCC(F)(F)F [Compound 28, 3-(-N,N-Dimethylsulfamoyl)-4-(6,6,6-trifluorohexylamino)benzoic Acid] |  | 12.6 ± 4.1 | 249 (≈ 95.2 µg/mL) | > 60 | Inactive | 
COCCNc1ccc(C(=O)O)cc1S(=O)(=O)N(C)C [Compound 29, 3-(-N,N-Dimethylsulfamoyl)-4-(2-methoxyethylamino)benzoic Acid] | 1.4 ± 2.7 | 4.1 ± 5 | 237 (≈ 71.7 µg/mL) | > 60 |  | 
COCCCCNc1ccc(C(=O)O)cc1S(=O)(=O)N(C)C [Compound 30, 3-(-N,N-Dimethylsulfamoyl)-4-(4-methoxybutylamino)benzoic Acid] |  | 5.2 ± 3.7 | 247 (≈ 81.6 µg/mL) | > 60 | Inactive | 
